Data published in PMC10145531, “Platinum(IV)-Loaded Degraded Glycol Chitosan as Efficient Platinum(IV) Drug Delivery Platform” (Pharmaceutics, 2023).
Like-named read-outs stand apart in the source and are kept apart here.

Tests used:
[1] = tested on: CH1/PA-1 (ovarian teratocarcinoma); design: method as in PMID 36432656; details: MTT, 96 h; cited from earlier work
[2] = tested on: A549 (non-small-cell lung carcinoma); design: method as in PMID 36432656; details: MTT, 96 h; cited from earlier work
[3] = tested on: SW480 (colon adenocarcinoma); design: method as in PMID 36432656; details: MTT, 96 h; cited from earlier work
[4] = tested on: CH1/PA-1 (ovarian teratocarcinoma); experiment: MTT cytotoxicity assay, CH1/PA-1 cells (96 h); type: cell-based, human
Experimental: (§1) Cell culture of the cell lines CH1/PA-1, SW480 and A549 was performed as described in reference. 4T1 cells were purchased from American Type Culture Collection, stored in a liquid nitrogen dewar and cultured in Roswell Park Memorial Institute (RPMI)-1640 medium supplemented with 10% foetal bovine serum (FBS) (Thermo Fisher, Waltham, MA, USA).
(§2) Cytotoxicity tests (96 h incubation) in the cell lines CH1/PA-1, SW480 and A549 were conducted as described in reference. Compounds were dissolved in supplemented minimum essential medium (MEM), except for compound C10, which was dissolved in sterile Milli-Q water.
(§3) Based on the required solubility, conjugates C1–C12 were forwarded for cytotoxicity assessments, whereas conjugates S1–S5 could not be tested due to solubility issues (Supporting Information, Table S1). The twelve substances C1–C12 were examined in comparison to the free platinum(IV) complexes and the unloaded dGC polymers with three different chain lengths for their cytotoxic activity in vitro. For this purpose, the colorimetric MTT assay was used in three human cancer cell lines (A549 (non-small-cell lung carcinoma), CH1/PA-1 (ovarian teratocarcinoma) and SW480 (colon adenocarcinoma)), yielding IC50 values in the low micromolar to nanomolar concentration range for all conjugates (Table 3, Supporting Information, Figures S18–S20). The three tested cell lines differ in their platinum sensitivity. SW480 and A549 cells are intrinsically cisplatin- and carboplatin-resistant due to their low expression of CTR1, whereas CH1/PA-1 cells show high chemosensitivity, particularly to platinum drugs.

[5] = tested on: A549 (non-small-cell lung carcinoma); experiment: MTT cytotoxicity assay, A549 cells (96 h); type: cell-based, human
Experimental: as §1, §2, §3

[6] = tested on: SW480 (colon adenocarcinoma); experiment: MTT cytotoxicity assay, SW480 cells (96 h); type: cell-based, human
Experimental: as §1, §2, §3

[7] = Biodistribution study (platinum content of organs by ICP-MS) in non-tumour-bearing mice; type: in vivo, Balb/C mice
Experimental: The Animal Welfare and Ethical Review Body at University College London (UCL) authorised all animal experiments, which were performed under license from the Home Office, UK. […] All substances were applied intravenously (100 µL stock/20 g body weight) via tail vein injection. At the chosen time points, animals were culled with CO2, and the major organs (lung, heart, liver, spleen and kidneys) were collected and frozen in liquid nitrogen. The samples were transferred to the Institute of Inorganic Chemistry, University of Vienna, Austria, where the total platinum content of each sample was determined with an Agilent 7500 ICP-quadrupole MS instrument.
The major organs of liver, lung, heart, kidney and spleen were collected after two specific time points (1 h and 24 h), and the platinum content of each organ was evaluated with ICP-MS analysis (Figure 3).

[8] = MTT, 96 h incubation, read-out: IC50 [µM] CH1/PA-1
[9] = free platinum(IV) complexes: equals measured IC50 of Table 3, read-out: Concentration of Pt(IV) Units at IC50 [µM] CH1/PA-1
[10] = MTT, 96 h incubation, read-out: IC50 [µM] A549
[11] = free platinum(IV) complexes: equals measured IC50 of Table 3, read-out: Concentration of Pt(IV) Units at IC50 [µM] A549
[12] = MTT, 96 h incubation, read-out: IC50 [µM] SW480
[13] = free platinum(IV) complexes: equals measured IC50 of Table 3, read-out: Concentration of Pt(IV) Units at IC50 [µM] SW480

Compound	IC50 [1] [µM]	IC50 [2] [µM]	IC50 [3] [µM]	IC50 [4, 8] [µM]	IC50 [4, 9] [µM]	IC50 [5, 10] [µM]	IC50 [5, 11] [µM]	IC50 [6, 12] [µM]	IC50 [6, 13] [µM]	organ distribution of platinum (ICP-MS) ([7]; 1 h post i.v. administration, 6: 0.15 mg/100 µL, V3: 0.41 mg/100 µL)	change of platinum amount in organs at 24 h vs 1 h ([7]; 24 h post i.v. injection, 6: 0.15 mg/100 µL, V3: 0.41 mg/100 µL)	increase of platinum amount in the kidneys after 24 h vs 1 h ([7]; i.v., 0.15 mg/100 µL (5.5 mg/kg oxaliplatin equivalent), female Balb/C mice) [fold]	tolerability in mice ([7]; i.v., 6: equivalent to 5.5 mg/kg oxaliplatin, V3: equivalent to 2.75 mg/kg oxaliplatin)
N.N.O=C([O-])C1(C(=O)[O-])CCC1.[Pt+2] [Carboplatin, carboplatin]	0.79 ± 0.11	38 ± 3	42 ± 10										
N.N.[Cl][Pt][Cl] [Cisplatin, cisplatin]	0.073 ± 0.001	3.8 ± 1	2.3 ± 0.2										
O=C1[O][Pt]2([NH][C@@H]3CCCC[C@H]3[NH]2)[O]C1=O [Oxaliplatin, oxaliplatin]	0.18 ± 0.01	0.98 ± 0.21	0.29 ± 0.05										
(OC-6-44)-Acetaodiammine(3-carboxypropanoato)(cyclobutane-1,1-dicarboxylato)platinum(IV) [compound 4]				16 ± 6	16 ± 6	> 200	> 200	> 200	> 200				
(OC-6-44)-Acetato(3-carboxypropanoato)(1R,2R-cyclohexane-1,2-diamine)oxalatoplatinum(IV) [compound 6]				4.1 ± 0.6	4.1 ± 0.6	70 ± 29		22 ± 8		highest concentrations in the excretory organs (kidney and liver)	only slightly raised in all systemic organs	2.1	well tolerated without signs of toxicity
(OC-6-44)-Acetatodiammine(3-carboxypropanoato)dichloridoplatinum(IV) [compound 2]				1.2 ± 0.5	1.2 ± 0.5	99 ± 17	99 ± 17	47 ± 10	47 ± 10				
